Data set [1] can be described thus: pH of quencher stock and of RBC mixture. As to conditions: for pH of stock quencher: room temperature. It counts as physicochemical. As for the experimental part:
The effect of various quenching conditions on the pH of a red blood cell composition was determined for various treatment conditions. The quencher solutions were prepared at a concentration of 600 mM in 8% dextrose monohydrate. […] Glutathione was assessed at 2 mM (acidic) or 20 mM (2 eq. of base). […] The pH of the quencher solution, either unmodified or neutralized, was measured using a standard Epoxy Calomel electrode (Beckman Instruments) at room temperature. […] The samples were mixed and the pH at room temperature was measured using the same electrode as described above.
In these, the appropriate amount of 600 mM stock was added, mixed with an appropriate volume of 8% dextrose to provide the same volume addition to each RBC sample where in one study, with varied glutathione concentrations, the pH was measured after adding glutathione and after adding PIC-1. […] Similar samples were also assessed for the inactivation of S. epidermidis. […] For gel card analysis, after incubation, the RBC were washed in BBS and were diluted in BBS to a final hematocrit of 4%. A 25 μL aliquot of each was mixed with 15 μL of rabbit polyclonal anti-acridine sera diluted either 1:4 or 1:100 in BBS and the mixture was incubated at 37° C. for 30 minutes. The cells were subsequently washed with 1.5 mL BBS. After washing was complete, the cells were mixed with goat anti-rabbit Fab′2 fragment anti H+L chains (1:4 dilution in PBS) and incubated at 37° C. for 30 minutes.

The test system of data set [2] is Human Leukocyte Genomic DNA. Nature of the data set: PIC-1 adduct frequency on leukocyte genomic DNA (14C-labelled PIC-1). In kind it is biochemical. Particulars: 20 h RT. The text has this: The quenching methods of the invention can also be compared to existing methods by determining the level of modification of nucleic acids in a sample. Typically, a red blood cell composition may contain leukocytes, and the nucleic acid from the leukocytes can be isolated. A pathogen inactivating compound having a radioactive isotope that, upon reaction of the compound with nucleic acid, will remain bound to the nucleic acid. This can be used to assess the amount of compound reacted with the nucleic acid for a variety of quenching methods, and provides a measure that can be directly correlated to expected leukocyte inactivation. The number of adducts formed per 1,000 nucleic acid base pairs can be used as a model to assess the expected impact of the various methods on pathogen inactivation. Alternatively, a suitable amount of a pathogen can be added to a red blood cell composition and the nucleic acid of the pathogen can be isolated after treatment. However, in this case the sample needs to be leukoreduced such that the levels of any residual leukocytes will not interfere with the measurement of pathogen nucleic acid.
The PIC-1 used included radiolabeled PIC-1, where the reactive group included a ^14C label (ViTrax, Inc., Placentia, Calif.). The specific activity of the PIC-1 used was […]. All samples were incubated at room temperature for 20 hours. After the incubation, 20 mL of RBC were diluted with a 20 mL volume of PBS and 20 mL of the mixture were added to each of two tubes containing 10 mL of Ficoll. The suspension was then centrifuged at 400×g for 30 minutes. The white blood cell portion was separated and the centrifuge step repeated after adding another 20 mL of PBS. The pellets obtained were combined and the combined pellet was resuspended in 5 mL Lysis buffer (100 mM NaCl, 10 mM Tris HCl, 25 mM EDTA, 5% SDS, 0.1 mg/mL Proteinase K, Sigma, St. Louis, Mo.) and was incubated at 50° C. for at least two hours. The resulting solution was then extracted with 5 mL of phenol:chloroform:isoamyl alcohol […], followed by 5 mL of chloroform, and then 5 mL of ether. The genomic DNA was isolated in the aqueous layer and precipitated by addition of 0.5 mL of 3 M NaOAc, 10 mL of 100% ethanol, followed by incubation of the final mixture in a dry ice/ethanol bath. The DNA was isolated by centrifugation at 6,000×g for 10′. The supernatant was removed, and the pellet air-dried and resuspended in 1 mL of TE buffer (100 mM Tris HCl, 1 mM EDTA, pH=7.4) The amount of DNA isolated was quantified by UV absorption at 260 nm and the amount of PIC-1 adducts was quantified by liquid scintillation counting (Perkin Elmer-Wallac, Winspectral 1414 Liquid Scintillation Counter, Shelton, Conn.) of the solution of DNA, using the specific activity of the PIC-1 to assess the molar ratio of PIC-1 to DNA base pairs. […] Glutathione is indicated as “GSH” and cysteine as “Cys” in the table, as well as elsewhere herein. The determination of adduct frequency was used as a surrogate measurement for the inactivation of leukocytes. It is known that under the standard pathogen inactivation conditions, leukocytes are inactivated to the level of detection of a limiting dilution assay, which corresponds to 5.3 log of inactivation. The mechanism of inactivation is through formation of adducts on the genomic nucleic acids. […] Similar studies could be done with a suitable pathogen using leukoreduced red blood cells in order to assess the binding to the pathogen nucleic acid under various conditions.

Where [3] appears, read: 20 mM GSH neutralized with 2 eq, 0.2 mM PIC-1 10 min later.
The mark [4] stands for this setting: 20 mM each neut. GSH (2 eq) and Cys (1 eq), 0.2 mM PIC-1 10 min later.

The record followed here is patent publication US7655392B2, “Quenching methods for red blood cell inactivation process” (priority 2004, dated 2010).

Several values for one entry are separate records, joined by “and”; a condition that tells them apart may be missing. Equal entries are not always repeated.

On to `N[C@@H](CCC(=O)N[C@@H](CS)C(=O)NCC(=O)O)C(=O)O` [glutathione, γ-L-glutamyl-L-cysteinyl-glycine], for which the “pH of stock quencher” value is 6.1 in data set [1] (600 mM in 8% dextrose + 1 eq. base); 9.5 and 9.2 in data set [1] (600 mM in 8% dextrose + 2 eq. base); 2.82 and 3.0 in data set [1] (600 mM in 8% dextrose, no base added). The “pH of mixture Post quencher” value in data set [1] (RBC + 2 mM acidic glutathione) turned out to be 6.7; in data set [1] (RBC + 2 mM glutathione + 1 eq. base) it was 6.8; in data set [1] (RBC + 2 mM glutathione + 2 eq. base), 6.8; in data set [1] (RBC + 5 mM acidic glutathione), 6.6; in data set [1] (RBC + 5 mM glutathione + 1 eq. base) it was 6.7; in data set [1] (RBC + 5 mM glutathione + 2 eq. base), 6.9. For the same compound, the “pH of mixture Post quencher” value in data set [1] (RBC + 10 mM acidic glutathione) came to 6.4; in data set [1] (RBC + 10 mM glutathione + 1 eq. base), 6.7; in data set [1] (RBC + 10 mM glutathione + 2 eq. base), 7.2; in data set [1] (RBC + 20 mM acidic glutathione), 6.1; in data set [1] (RBC + 20 mM glutathione + 1 eq. base), 6.7; in data set [1] (RBC + 20 mM glutathione + 2 eq. base) it was 7.4. The “pH of mixture Final” value in data set [1] (RBC + 2 mM acidic glutathione + 0.2 mM PIC-1) came to 6.7; in data set [1] (RBC + 2 mM glutathione + 1 eq. base + 0.2 mM PIC-1) it was 6.8; in data set [1] (RBC + 2 mM glutathione + 2 eq. base + 0.2 mM PIC-1) it was 6.8; in data set [1] (RBC + 5 mM acidic glutathione + 0.2 mM PIC-1), 6.6; in data set [1] (RBC + 5 mM glutathione + 1 eq. base + 0.2 mM PIC-1), 6.7; in data set [1] (RBC + 5 mM glutathione + 2 eq. base + 0.2 mM PIC-1) it was 6.9. Further, the “pH of mixture Final” value in data set [1] (RBC + 10 mM acidic glutathione + 0.2 mM PIC-1) is given as 6.4; in data set [1] (RBC + 10 mM glutathione + 1 eq. base + 0.2 mM PIC-1), 6.7; in data set [1] (RBC + 10 mM glutathione + 2 eq. base + 0.2 mM PIC-1) it was 7.0; in data set [1] (RBC + 20 mM acidic glutathione + 0.2 mM PIC-1), 6.1; in data set [1] (RBC + 20 mM glutathione + 1 eq. base + 0.2 mM PIC-1) it was 6.7; in data set [1] (RBC + 20 mM glutathione + 2 eq. base + 0.2 mM PIC-1), 7.2. In addition, the “pH of final mixture” value in data set [1] (Table 10: RBC + 2 mM acidic quencher + 0.2 mM PIC-1) is on record as 6.9; in data set [1] (Table 10: RBC + 20 mM quencher + 2 eq. base + 0.2 mM PIC-1), 7.7. For the same compound, the results for the pH of solution result in data set [1] (glutathione solution neutralized with 2 equivalents of sodium hydroxide) and in data set [1] (solution of the protonated glutathione) were “approximately 9.5” and “approximately 3”, respectively.

As to `O=C(CCNc1c2ccccc2nc2ccccc12)OCCN(CCCl)CCCl` [PIC-1], the “Adduct frequency (average number of base pairs between adducts)” value in data set [2] (0.2 mM PIC-1, 2 mM acidic GSH) was 44 and 29; in data set [2] (0.2 mM PIC-1, no quencher) it was 36 and 35; in data set [2] (setting [3]) it was 27 and 28; in data set [2] (setting [4]), 33. Besides, the Adducts per kbp in data set [2] (0.2 mM PIC-1, 2 mM acidic GSH) was 23 and 34; in data set [2] (0.2 mM PIC-1, no quencher) it was 28; in data set [2] (setting [3]), 37 and 36; in data set [2] (setting [4]), 30.
